# Results published in patent publication US8183230B2, “Antimicrobial preservatives to achieve multi-dose formulation using beta-cyclodextrins for liquid dosage forms” (priority 2004, dated 2012).
# Tests used:
# [1] = Equilibrium dialysis method for determining binding constants; conditions: for Keq / k: binary, SBE-CD 1.0 mM
# Text: In the present invention, the method to determine binding constants utilizes equilibrium dialysis in the development of a multi-use parenteral formulation containing SBE-CD and a preservative. In particular, the method was applied in developing a parenteral formulation comprising the compound of Formula Ia, a cyclodextrin (SBE-CD) and a preservative (meta-cresol). This approach is applicable to compounds other than the compound of Formula Ia in developing parenteral formulations and is within the scope of this invention. […] The significance of this procedure is its ability to measure the binding constant of multiple compounds competing for binding with the cyclodextrin. The experimental dialysis data also provides an easily interpreted representation of binding in the formulation by visualizing the degree of interaction by the equilibrium established following dialysis.
# Equilibrium dialysis permits calculation of binding constants by modeling the resultant diffusion rate across a semi-permeable membrane with an equilibrium end point. Equilibrium dialysis is performed by allowing the substrate in a solution containing bound substrate and ligand in a donor compartment of an equilibrium dialysis apparatus (cell) to equilibrate over time with an acceptor compartment. Ono, N., Hirayama, F., Arima, H., Uekama, K. “Determination of Stability Constant of β-Cyclodextrin Complexes Using the Membrane Permeation Technique and the Permeation Behavior of Drug Competing Agent-β-Cyclodextrin Ternary Systems” Eur. J. Pharm. Sci. 1999 9:133-139. The acceptor cell contains no ligand. The membrane is semi-permeable allowing the typically low molecular weight substrates to freely diffuse, while the cyclodextrin (MW=2163) remains in the donor compartment. Sampling from both compartments over time yields a time-concentration profile of substrate in both the donor and acceptor compartments of the dialysis cell.
# A mathematical model describing the diffusion rate of drug across the membrane can be derived for systems containing two or more components in solution. The dialysis rate and binding constant for the substrates are obtained by resolving the equation using nonlinear curve fitting software. Depending on the interactions between the components it is possible to describe the competitive binding that occurs in the solution. The equilibrium binding constant is a measure of the relative concentration of meta-cresol bound to SBE-CD according to the chemical equilibrium equation below: S=meta-cresol, L=SBE-CD. S:L indicates the complex formed between meta-cresol and SBE-CD.
# The initial experiments established the equilibrium dialysis flux rates for compound of Formula Ia and meta-cresol across the 500 MWCO dialysis membrane. Three different concentrations of compound of Formula Ia were initially loaded into the donor side of the dialysis well. Samples were withdrawn at various time intervals and concentration of free component was measured using HPLC. […] The smoothed line was a fit to the data using the model for a unitary system presented in the discussion. The equilibrium point for all these control experiments was reached after 50% of the total drug was distributed uniformly across the donor and acceptor sides of the well. This asymptotic approach to equilibrium was modeled and the dialysis rates were calculated, Table II.
# The primary method of analyzing the data was to perform calculations from equilibrium dialysis data, as described below. In particular, the rate of diffusion across the membrane was calculated using the following equations:
# The rate of diffusion from the donor phase is defined by the following relationship: [D]t−[D]eq=([D]0−[D]eq)e^(−2kt) (1)
# Rate of diffusion into the Acceptor Phase: [D]eq−[D]t=[D]eqe^(−2kt) (2) wherein
# The basis of calculation in the presence of SBE-CD is to assume that complexation occurs only in the donor phase according to the standard complexation reaction:
# The value for CyDF may be substituted into equation 8. […]
# [2] = Solubility analysis (solubility method) for binding constant with SBE-CD; conditions: for K11 (equilibrium): meta-cresol saturated solubility in varying SBE-CD; for Slope / y-intercept: meta-cresol solubility vs. SBE-CD concentration
# Protocol: Traditional solubility methods were performed initially to determine the solubility and binding constants of compound of Formula Ia and preservative with SBE-CD.
# Binding was calculated for meta-cresol using solubility analysis. The experiment was performed at different concentrations of compound of Formula Ia to determine if there was any effect from the presence of drug in solution on the meta-cresol binding constant. Meta-cresol solubility was measured in excess (saturated) meta-cresol and the equilibrium binding constant was calculated using the following equation:
# [formula] Where St is the total solubility of meta-cresol, s0 is the inherent solubility of meta-cresol, Lt is the total concentration of SBE-CD (ligand) and K11 is the equilibrium binding constant of meta-cresol assuming a 1 to 1 binding stoichiometry.
# [3] = Calculated non-sequestered concentrations in formulations
# Text: These constants were used to calculate the concentration of non-sequestered meta-cresol in the formulations tested for anti-microbial efficacy.
# The appearance of a plateau at the higher concentrations is only due to the limitation in the bactericidal efficacy measurement method. As the method consists in evaluating the population not killed by the preservative, when the whole population is dead (i.e. none is detectable any more ˜100%) the figure quoted is of the form: a log reduction greater than a value usually between 3 and 5.
# The formulations were analyzed for preservative effectiveness.
# [4] = Stability measurements (accelerated stability)
# Protocol: Stability Measurements. Potential lead formulations were evaluated under various accelerated stability conditions in order to assess potency and purity of compound of Formula Ia, preservative content and SBE-CD content. For example, in one accelerated stability study, potential lead formulations were placed in stability ovens to measure short-term thermal stability. […] Purity and potency assays to measure compound of Formula Ia, as well as antimicrobial preservatives and SBE-CD content, were performed using validated HPLC methodology. SBE-CD was assayed using GTP 5984.
# [5] = test system: Escherichia coli, Pseudomonas aeruginosa, Staphylococcus aureus, Candida albicans, Aspergillus niger; conditions: as indicated by literature; cited from earlier work
# [6] = approximate ratio 1:1, Meta-cresol 1.1 mM
# [7] = approximate ratio 1:2, Meta-cresol 0.6 mM
# [8] = approximate ratio 1:4, Meta-cresol 0.3 mM
# [9] = Compound of Formula Ia 00.00 mM
# [10] = Compound of Formula Ia 10.67 mM
# [11] = Compound of Formula Ia 21.34 mM
# [12] = Compound of Formula Ia 42.67 mM
smiles,measurement,setting,value
Cc1cccc(O)c1 [meta-cresol],Keq,[1]; [6],88 M⁻¹
same,k,[1]; [6],1.984 h⁻¹
same,Keq,[1]; [7],75 M⁻¹
same,k,[1]; [7],2.182 h⁻¹
same,Keq,[1]; [8],85 M⁻¹
same,k,[1]; [8],2.761 h⁻¹
same,binding constant with SBE-CD,"[1]; equilibrium dialysis method, binary systems, drug ±352 M−1, n=3, preservative ±7 M−1",83 M⁻¹
same,binding of preservative to cyclodextrin in ternary systems,"[1]; ternary systems of SBE-CD, drug and preservative at the ratios tested, equilibrium profile",not bound to cyclodextrin
same,Average Binding Constant,[2]; average over Compound of Formula Ia 00.00 to 42.67 mM,27.59 M⁻¹
same,K11 (equilibrium),[2]; [9],24.53 M⁻¹
same,K11 (equilibrium),[2]; [10],25.78 M⁻¹
same,K11 (equilibrium),[2]; [11],35.46 M⁻¹
same,K11 (equilibrium),[2]; [12],24.59 M⁻¹
same,Slope,[2]; [9],0.46
same,y-intercept,[2]; [9],34.06 mM
same,Slope,[2]; [10],0.46
same,y-intercept,[2]; [10],33.15 mM
same,Slope,[2]; [11],0.53
same,y-intercept,[2]; [11],32.15 mM
same,Slope,[2]; [12],0.43
same,y-intercept,[2]; [12],31.15 mM
same,"equilibrium binding constant, averaged across the studies","[2]; solubility method, SBE-CD",27.6 M⁻¹
same,binding constant with SBE-CD,"[2]; solubility method, n=1",28 M⁻¹
same,minimum concentration of non sequestered preservative,[3]; for preservative effectiveness in drug/cyclodextrin/preservative formulations,2.1 mg/mL
same,calculated non-sequestered concentration,"[3]; preferred formulation: 10 mgA/mL compound, 63 mg/mL SBE-CD, 3.3 mg/mL meta-cresol, pH 4.4",2.8 mg/mL
same,stability in the formulation (in words),[4],excellent stability
same,CONTENT (% INTENT),"[4]; 5° C., 1 week, Amber-Treated, 3 mg/mL meta-cresol, 100 mg/mL SBE-CD, 10 mgA/mL compound of Formula Ia",102 % INTENT
same,CONTENT (% INTENT),"[4]; 5° C., 1 week, Amber-Untreated, 3 mg/mL meta-cresol, 100 mg/mL SBE-CD, 10 mgA/mL compound of Formula Ia",102 % INTENT
same,CONTENT (% INTENT),"[4]; 5° C., 3 weeks, Amber-Treated, 3 mg/mL meta-cresol, 100 mg/mL SBE-CD, 10 mgA/mL compound of Formula Ia",104 % INTENT
same,CONTENT (% INTENT),"[4]; 5° C., 3 weeks, Amber-Untreated, 3 mg/mL meta-cresol, 100 mg/mL SBE-CD, 10 mgA/mL compound of Formula Ia",103 % INTENT
same,CONTENT (% INTENT),"[4]; 5° C., 6 weeks, Amber-Treated, 3 mg/mL meta-cresol, 100 mg/mL SBE-CD, 10 mgA/mL compound of Formula Ia",104 % INTENT
same,CONTENT (% INTENT),"[4]; 5° C., 6 weeks, Amber-Untreated, 3 mg/mL meta-cresol, 100 mg/mL SBE-CD, 10 mgA/mL compound of Formula Ia",102 % INTENT
same,CONTENT (% INTENT),"[4]; 5° C., 12 weeks, Amber-Treated, 3 mg/mL meta-cresol, 100 mg/mL SBE-CD, 10 mgA/mL compound of Formula Ia",98 % INTENT
same,CONTENT (% INTENT),"[4]; 5° C., 12 weeks, Amber-Untreated, 3 mg/mL meta-cresol, 100 mg/mL SBE-CD, 10 mgA/mL compound of Formula Ia",98 % INTENT
same,CONTENT (% INTENT),"[4]; 50° C., 1 week, Amber-Treated, 3 mg/mL meta-cresol, 100 mg/mL SBE-CD, 10 mgA/mL compound of Formula Ia",99 % INTENT
same,CONTENT (% INTENT),"[4]; 50° C., 1 week, Amber-Untreated, 3 mg/mL meta-cresol, 100 mg/mL SBE-CD, 10 mgA/mL compound of Formula Ia",100 % INTENT
same,CONTENT (% INTENT),"[4]; 50° C., 3 weeks, Amber-Treated, 3 mg/mL meta-cresol, 100 mg/mL SBE-CD, 10 mgA/mL compound of Formula Ia",103 % INTENT
same,CONTENT (% INTENT),"[4]; 50° C., 3 weeks, Amber-Untreated, 3 mg/mL meta-cresol, 100 mg/mL SBE-CD, 10 mgA/mL compound of Formula Ia",101 % INTENT
same,CONTENT (% INTENT),"[4]; 50° C., 6 weeks, Amber-Treated, 3 mg/mL meta-cresol, 100 mg/mL SBE-CD, 10 mgA/mL compound of Formula Ia",104 % INTENT
same,CONTENT (% INTENT),"[4]; 50° C., 6 weeks, Amber-Untreated, 3 mg/mL meta-cresol, 100 mg/mL SBE-CD, 10 mgA/mL compound of Formula Ia",102 % INTENT
same,CONTENT (% INTENT),"[4]; 50° C., 12 weeks, Amber-Treated, 3 mg/mL meta-cresol, 100 mg/mL SBE-CD, 10 mgA/mL compound of Formula Ia",100 % INTENT
same,CONTENT (% INTENT),"[4]; 70° C., 1 week, Amber-Treated, 3 mg/mL meta-cresol, 100 mg/mL SBE-CD, 10 mgA/mL compound of Formula Ia",100 % INTENT
same,CONTENT (% INTENT),"[4]; 70° C., 1 week, Amber-Untreated, 3 mg/mL meta-cresol, 100 mg/mL SBE-CD, 10 mgA/mL compound of Formula Ia",100 % INTENT
same,CONTENT (% INTENT),"[4]; 70° C., 2 weeks, Amber-Treated, 3 mg/mL meta-cresol, 100 mg/mL SBE-CD, 10 mgA/mL compound of Formula Ia",103 % INTENT
same,CONTENT (% INTENT),"[4]; 70° C., 2 weeks, Amber-Untreated, 3 mg/mL meta-cresol, 100 mg/mL SBE-CD, 10 mgA/mL compound of Formula Ia",103 % INTENT
same,CONTENT (% INTENT),"[4]; 70° C., 3 weeks, Amber-Treated, 3 mg/mL meta-cresol, 100 mg/mL SBE-CD, 10 mgA/mL compound of Formula Ia",100 % INTENT
same,CONTENT (% INTENT),"[4]; 70° C., 3 weeks, Amber-Untreated, 3 mg/mL meta-cresol, 100 mg/mL SBE-CD, 10 mgA/mL compound of Formula Ia",102 % INTENT
same,CONTENT (% INTENT),"[4]; 70° C., 6 weeks, Amber-Treated, 3 mg/mL meta-cresol, 100 mg/mL SBE-CD, 10 mgA/mL compound of Formula Ia",101 % INTENT
same,CONTENT (% INTENT),"[4]; 70° C., 6 weeks, Amber-Untreated, 3 mg/mL meta-cresol, 100 mg/mL SBE-CD, 10 mgA/mL compound of Formula Ia",101 % INTENT
same,CONTENT (% INTENT),"[4]; 70° C., 12 weeks, Amber-Treated, 3 mg/mL meta-cresol, 100 mg/mL SBE-CD, 10 mgA/mL compound of Formula Ia",100 % INTENT
same,CONTENT (% INTENT),"[4]; 70° C., 12 weeks, Amber-Untreated, 3 mg/mL meta-cresol, 100 mg/mL SBE-CD, 10 mgA/mL compound of Formula Ia",100 % INTENT
same,CONTENT (% INTENT),"[4]; ICH Photostability, 1X ICH UV/FI, Amber-Treated, 3 mg/mL meta-cresol, 100 mg/mL SBE-CD, 10 mgA/mL compound of Formula Ia",102 % INTENT
same,CONTENT (% INTENT),"[4]; ICH Photostability, 1X ICH UV/FI, Amber-Untreated, 3 mg/mL meta-cresol, 100 mg/mL SBE-CD, 10 mgA/mL compound of Formula Ia",102 % INTENT
same,loss / potency decrease,"[4]; after 12 weeks at 70° C., relative to 1 week at 5° C., 3 mg/mL meta-cresol, 100 mg/mL SBE-CD, 10 mgA/mL compound of Formula Ia",2%
same,ACCEPTABLE STABILITY,"[4]; pH 4.4, 10% SBE-CD, 10 mgA/mL compound of Formula Ia",✓
same,USP and Ph. Eur. criteria A or B requirements,[5],met both the USP and either Ph. Eur. criteria A or B requirements
